Data on 1 substance can be found in patent US11191811B2, “Osteocalcin as a treatment for frailty associated with aging” (THE TRUSTEES OF COLUMBIA UNIVERSITY IN THE CITY OF NEW YORK, priority 2014, dated 2021).

In one assay the test system is WT mice. In words: D/LT and EPMT in adult WT mice with ICV infusion. It is filed as in vivo, mouse. As to the method: FIG. 14. Osteocalcin improves cognitive function in adult wild-type (WT) mice. Results from dark and light (DLT) and elevated plus maze tests (EPMT) performed in 3-month old WT mice infused ICV with vehicle (PBS) or recombinant uncarboxylated osteocalcin (Ocn) (3, 10, 30 ng/hour) are shown. (A) DLT measuring the latency to enter, the number of entries, and the time spend in lit compartment. (B) EPMT measuring the number of entries into open arms and the time spend in […].
Each mouse was allowed to explore the apparatus for 5 min. Global activity was assessed by measuring the number of entries […] (David et al, 2009, Neuron 62:479-493). Anxiety was assessed by comparing the time spent in the open arms.
The test was performed in a quiet, darkened room. Mice were individually housed in cages containing a handful of bedding from their home cage and acclimated to the room at least 1 h before the test. Naïve mice were placed individually in the testing chamber in the dark compartment. The test was 5 min in duration, and time spent and number of entries in light compartments were recorded a highly trained observer, blind to the genotype of the mice.
To determine if osteocalcin is sufficient to improve cognitive function in adult mice, WT 2-month old mice were implanted with ICV pumps delivering vehicle (PBS), or 3, 10, or 30 ng/hr recombinant uncarboxylated full-length mouse osteocalcin for a period of one month. After one month of infusion, animals were subjected to behavioral testing. […] This improvement is evidenced by an increase in the exploration of the lit compartment and open arms in the D/LT and EMP tests, respectively (FIG. 14A-B).

A further assay relates to WT myotubes. In words: Gene expression (qPCR) in myotubes treated with Ocn. It is filed as cell-based, mouse. The method, then: FIG. 28. Osteocalcin signaling in myofibers favors uptake and oxidation of fatty acids. (A-B) Acylcarnitine levels in muscles and plasma of Gprc6af/f and Gprc6aMck−/− mice, at rest and after a single bout of exercise (n=4-6 per group). (C) OCR in myofibers cultured in KHR buffer containing 3 mM oleic acid. (D) ATP accumulations in muscles of Gprc6af/f and Gprc6aMck−/− mice after a single bout of exercise (n=6 per group). (E) Western blot analysis of HSL phosphorylation (Ser563) in muscles of Gprc6af/f and Gprc6aMck−/− mice after a single bout of exercise. (F-G) Cd36, Fatp1 and Cpt1b expression in WT and Gprc6a−/− myotubes or WT myotubes treated with Ocn (10 ng/ml). (H) Fatp1 expression in muscles of Gprc6af/f; Gprc6aMck−/− and Ocn+/−; Gprc6aMck+/− mice, at rest and after a single bout of exercise (n=4-6 per group). (I) Western blot analysis of FATP1 in muscle of Gprc6af/f and Gprc6aMck−/− mice after exercise. (J) Cd36, Fatp1 and Cpt1b expression in muscles of Creb f/f and CrebMck−/− mice after a single bout of exercise. (K) Western blot analysis of CREB phosphorylation (Ser133) in muscles of Gprc6af/f and Gprc6aMck−/− mice after a single bout of exercise. (L) Performance during endurance exercise of 3 month-old Gprc6aMck+/−; CrebMck+/−, CrebMck+/− and control mice (n=8-13 per group).
Serum osteocalcin, PINP, CTX, and insulin levels were measured using ELISA assays. Blood glucose level was measured using an Accu-Check glucometer. Urine 3-MHT was measured as previously described (Aranibar et al., 2011, Anal. Biochem. 410:84-91). Determination of cAMP accumulation was performed using a commercial kit (R&D). For gene expression, 1 μg of total RNA was reverse transcribed into cDNA. qPCR analyses were performed using a SYBER green master mix (Applied Biosciences) and a CFX-Connect real time PCR (Bio-Rad). Relative expression levels of each gene were normalized to that of Hprt or Gapdh. For in situ hybridization, muscle was frozen in liquid N2-cooled methylbutane. Samples were sectioned at 10 μm using a cryostat. […]

Another assay has as its system wild type mice. In words: Insulin sensitivity test after subcutaneous infusion. The note with it: 0.3 or 3 ng/hour subcutaneously for 18 days, 0-120 minutes after insulin injection. It is filed as in vivo, mouse. As to the method: FIG. 3. Osteocalcin subcutaneous infusion increases insulin sensitivity in wild-type mice. Wild-type mice were infused subcutaneously with indicated doses of recombinant osteocalcin or PBS for 18 days before receiving a single injection of insulin. Blood glucose was measured thereafter at indicated times.
The effect of uncarboxylated osteocalcin on insulin sensitivity was also examined. Wild type mice were infused subcutaneously with 0.3 or 3 ng/hour doses of recombinant osteocalcin or PBS for 18 days before receiving a single injection of insulin. Blood glucose was measured thereafter at the indicated times from 0-120 minutes after injection.

Setting [1] is: 3 or 10 ng/hour ICV for one month.

As to “uncarboxylated osteocalcin: Recombinant uncarboxylated mouse osteocalcin, bacterially produced, purified on glutathione beads and cleaved from the GST subunit by thrombin (YLGASVPSPDPLEPTREQCELNPACDELSDQYGLKTAYKRIYGITI)”, in the assay on WT mice (setting [1]), the “exploration of the lit compartment (D/LT)” value is given as “increase” and the “exploration of the open arms (EPMT)” value is given as “increase”. In the assay with WT mice (3 or 10 ng/hour ICV for one month, WT 2-month old mice), the anxiety-like behavior entry is on record as “decrease”. The cognitive function entry with WT mice (adult WT mice, ICV 3, 10, 30 ng/hour (FIG. 14 title)) is reported as “improves”. In addition, the “expression of Il6” value in the assay with WT myotubes is reported as “increased”. Besides, in the assay with WT myotubes (Ocn 10 ng/ml), the “expression of Cpt1b” value is “increased” and the “expression of Fatp1” value is “increased”. For the same substance, in the assay with wild type mice, the insulin sensitivity entry is “increased”. Further, in the assay with wild type mice (listed as Osteocalcin), the insulin sensitivity entry is given as “increases”.
